According to article PMC2783803 (Journal of medicinal chemistry, 2009):

How the values were obtained:
human T1R2+T1R3 receptor = target: T1, human T1R2+T1R3 receptor (Homo sapiens, UniProt Q7RTX0); assay: Heterologous calcium mobilization assay, human sweet receptor in HEK293 cells; assay type: cell-based
T1 sequence (Q7RTX0 21-852): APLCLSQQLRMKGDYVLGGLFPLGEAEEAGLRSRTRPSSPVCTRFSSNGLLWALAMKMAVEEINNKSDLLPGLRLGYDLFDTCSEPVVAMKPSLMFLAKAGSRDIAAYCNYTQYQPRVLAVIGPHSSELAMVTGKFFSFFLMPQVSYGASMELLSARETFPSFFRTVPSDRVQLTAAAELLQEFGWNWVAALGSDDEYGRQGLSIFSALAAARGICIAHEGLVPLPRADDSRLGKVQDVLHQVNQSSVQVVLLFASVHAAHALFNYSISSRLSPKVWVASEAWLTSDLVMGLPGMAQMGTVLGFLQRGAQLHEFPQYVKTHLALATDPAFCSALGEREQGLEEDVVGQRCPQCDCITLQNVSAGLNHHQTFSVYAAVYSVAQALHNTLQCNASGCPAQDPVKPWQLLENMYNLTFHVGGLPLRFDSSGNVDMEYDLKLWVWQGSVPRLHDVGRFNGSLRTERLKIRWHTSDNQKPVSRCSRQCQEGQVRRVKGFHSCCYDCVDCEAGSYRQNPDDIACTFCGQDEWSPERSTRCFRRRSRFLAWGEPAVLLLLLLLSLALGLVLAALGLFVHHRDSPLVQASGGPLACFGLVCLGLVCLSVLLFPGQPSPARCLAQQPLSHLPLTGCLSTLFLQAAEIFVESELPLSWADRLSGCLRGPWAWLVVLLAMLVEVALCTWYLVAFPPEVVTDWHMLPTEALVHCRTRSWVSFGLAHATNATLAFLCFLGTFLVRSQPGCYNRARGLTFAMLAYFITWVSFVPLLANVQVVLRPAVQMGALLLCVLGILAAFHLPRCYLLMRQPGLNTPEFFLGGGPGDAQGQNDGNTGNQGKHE
T1 sequence (Q8TE23 20-839 partner): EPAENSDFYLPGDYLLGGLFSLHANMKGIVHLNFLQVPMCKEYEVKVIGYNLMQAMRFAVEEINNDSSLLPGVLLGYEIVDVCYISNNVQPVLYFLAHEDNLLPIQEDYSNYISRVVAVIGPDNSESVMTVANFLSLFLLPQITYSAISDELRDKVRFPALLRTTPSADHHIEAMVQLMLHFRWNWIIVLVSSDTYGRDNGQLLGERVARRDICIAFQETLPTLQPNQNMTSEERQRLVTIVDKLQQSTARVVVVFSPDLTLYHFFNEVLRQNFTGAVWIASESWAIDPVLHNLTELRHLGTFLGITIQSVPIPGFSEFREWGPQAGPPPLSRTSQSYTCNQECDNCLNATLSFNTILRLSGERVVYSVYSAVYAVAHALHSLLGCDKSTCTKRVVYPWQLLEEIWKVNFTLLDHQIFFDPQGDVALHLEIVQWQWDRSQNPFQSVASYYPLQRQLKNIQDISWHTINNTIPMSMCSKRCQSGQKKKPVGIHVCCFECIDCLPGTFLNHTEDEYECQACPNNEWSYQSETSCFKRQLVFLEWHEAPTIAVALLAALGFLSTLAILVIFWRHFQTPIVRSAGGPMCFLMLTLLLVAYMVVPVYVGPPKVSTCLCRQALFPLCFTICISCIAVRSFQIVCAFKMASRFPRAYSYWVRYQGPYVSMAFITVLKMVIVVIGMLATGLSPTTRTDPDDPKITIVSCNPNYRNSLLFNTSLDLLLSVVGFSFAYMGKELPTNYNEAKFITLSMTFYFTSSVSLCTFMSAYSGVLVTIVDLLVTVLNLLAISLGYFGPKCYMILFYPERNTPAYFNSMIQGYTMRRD

[1] = system: sweet and umami (MSG) taste; assay: Psychophysical self-experimentation, taste inhibition in vivo; set-up: species or system human; conditions: self-experimentation by one author; data not shown
PPAR-alpha = conditions: read-out: EC50 for activating PPAR-alpha; cited from earlier work
[2] = system: mouse sweet receptor (mT1R2+mT1R3); assay: Heterologous calcium mobilization assay, mouse sweet receptor; assay type: cell-based; conditions: activated by 2.5mM sucralose; inhibitor at ~5-times IC50

Compound: O=C(O)COc1ccc(Cl)cc1Cl [2,4D, (2,4-dichlorophenoxy)acetic acid]
- IC50 (human T1R2+T1R3 receptor): 70 µM

Compound: CC(C)(Oc1ccc(Cl)cc1)C(=O)O [Clofibric acid, 2-(4-chlorophenoxy)-2-methylpropanoic acid]
- inhibition of sweet taste in vivo [1]: potently inhibited
- inhibition of umami (MSG) taste in vivo [1]: potently inhibited
- EC50 (PPAR-alpha): 50 to 55 µM

Compound: COc1ccc(OC(C)C(=O)O)cc1 (centres unmarked) [Lactisole, 2-(4-methoxyphenoxy) propanoic acid]
- effect on the mouse sweet receptor [2]: no effect
